Experimental data published in ChEMBL document CHEMBL4699521, “Design and synthesis of 4-Aminoquinoline-isoindoline-dione-isoniazid triads as potential anti-mycobacterials” (Bioorg Med Chem Lett, 2020).
Values after ≈ are worked out from the molar mass of the structure shown.

What was measured:
[1] = target: T1, Enoyl-[acyl-carrier-protein] reductase [NADH] (Mycobacterium tuberculosis) (UniProt P9WGR1); test: Inhibition of Mycobacterium tuberculosis mc2 6230 InhA assessed as antimycobacterial activity by measuring minimum inhibitory concentration required to inhibit 99% of bacterial growth
T1 sequence (whole entry): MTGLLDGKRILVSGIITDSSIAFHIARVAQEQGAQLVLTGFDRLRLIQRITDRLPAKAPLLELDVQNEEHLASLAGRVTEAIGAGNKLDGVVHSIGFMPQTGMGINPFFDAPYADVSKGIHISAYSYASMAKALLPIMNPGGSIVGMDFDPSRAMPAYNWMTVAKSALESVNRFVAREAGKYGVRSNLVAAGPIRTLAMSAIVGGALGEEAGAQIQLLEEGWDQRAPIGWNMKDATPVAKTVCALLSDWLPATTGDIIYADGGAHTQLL

Vero [2] = test: Cytotoxicity against African green monkey Vero cells; assay type: cell-based; conditions: Chlorocebus sabaeus
[3] = Selectivity index, ratio of IC50 for African green monkey Vero cells to MIC99 for Mycobacterium tuberculosis mc2 6230; assay type: toxicity; conditions: read-out: Selectivity Index
[4] = system: Mycobacterium tuberculosis; test: Antitubercular activity against Mycobacterium tuberculosis mc2 6230 assessed as minimum inhibitory concentration required to inhibit 99% of bacterial growth measured after 2 to 3 weeks; assay type: functional; conditions: time weeks 2-3
[5] = system: Mycobacterium tuberculosis; test: Antimycobacterial activity against Mycobacterium tuberculosis H37Rv assessed as reduction in bacterial cell growth; assay type: functional
[6] = system: Mycobacterium tuberculosis; test: Antitubercular activity against Mycobacterium tuberculosis mc2 6230 assessed as minimum inhibitory concentration required to inhibit 99% of bacterial growth; assay type: functional
[7] = system: Mycobacterium tuberculosis; test: Antitubercular activity against Mycobacterium tuberculosis mc2 6230 assessed as minimum inhibitory concentration required to inhibit 99% of bacterial growth incubated for 7 days by two-fold serial dilution method; assay type: functional; conditions: mc2 6230, 168 h, time 7 day
Vero [8] = test: Cytotoxicity against African green monkey Vero cells assessed as reduction in cell viability measured after 24 hrs by resazurin assay; assay type: cell-based; conditions: Chlorocebus sabaeus
[9] = system: Mycobacterium tuberculosis; test: Antitubercular activity against Mycobacterium tuberculosis H37Rv assessed as reduction in bacterial cell growth measured after 7 days by alamar blue assay; assay type: functional; conditions: 168 h, time 7 day

SMILES | MIC99 [1] | IC50 (Vero [2]) | selectivity ratio [3] | also measured
O=C(NCCCCNc1ccnc2cc(Cl)ccc12)c1ccc2c(c1)C(=O)N(NC(=O)c1ccncc1)C2=O | 23 µM (≈ 12.5 µg/mL) | 14.7 µM | 0.6 | 
O=C(CN1C(=O)c2ccccc2C1=O)NNC(=O)c1ccncc1 | 308 µM (≈ 100 µg/mL) | > 308 µM | > 1 | 
O=C(NCCCCCCNc1ccnc2cc(Cl)ccc12)c1ccc2c(c1)C(=O)N(NC(=O)c1ccncc1)C2=O | 11 µM (≈ 6.28 µg/mL) | 33.3 µM | 3 | 
Cc1ccc(N2C(=O)C(NC(=O)CCNc3ccnc4cc(Cl)ccc34)[C@@H]2/C=C/c2ccccc2)cc1 (some centres not stated) |  |  |  | MIC [4]: 9.8 µM (≈ 5.01 µg/mL)
O=C(NNC(=O)c1ccc2c(c1)C(=O)N(CCCCCCCCNc1ccnc3cc(Cl)ccc13)C2=O)c1ccncc1 | 5.1 µM (≈ 3.06 µg/mL) | 129 µM | 25 | 
O=C(NNC(=O)c1ccc2c(c1)C(=O)N(CCCCNc1ccnc3cc(Cl)ccc13)C2=O)c1ccncc1 | 23 µM (≈ 12.5 µg/mL) | 16.6 µM | 0.7 | 
O=C(NN1C(=O)c2c(F)c(F)c(F)c(F)c2C1=O)c1ccncc1 |  |  |  | MIC [5]: 3.4 µM (≈ 1.15 µg/mL)
O=C(O)c1ccc2c(c1)C(=O)N(CCCCCCNc1ccnc3cc(Cl)ccc13)C2=O | 222 µM (≈ 100 µg/mL) | 24.3 µM | 0.11 | 
O=C(NCCCNc1ccnc2cc(Cl)ccc12)c1ccc2c(c1)C(=O)N(NC(=O)c1ccncc1)C2=O | 5.8 µM (≈ 3.07 µg/mL) | 161 µM | 27 | 
O=C(NN1C(=O)c2ccc(C(=O)OCCCNc3ccnc4cc(Cl)ccc34)cc2C1=O)c1ccncc1 | 11.9 µM (≈ 6.31 µg/mL) | > 194 µM | > 16 | 
O=C(NNC(=O)c1ccc(N2C(=O)c3ccccc3C2=O)cc1)c1ccncc1 | 129 µM (≈ 50 µg/mL) | > 259 µM | > 2 | 
O=C(NN1C(=O)c2ccc(N3CCN(c4ccnc5cc(Cl)ccc45)CC3)cc2C1=O)c1ccncc1 | 6 µM (≈ 3.08 µg/mL) | > 195 µM | > 32.5 | 
O=C1c2ccccc2C(=O)N1CCCCCCCCNc1ccnc2cc(Cl)ccc12 |  | 11.4 µM |  | MIC [6]: 13.5 µM (≈ 5.89 µg/mL)
O=C(NNC(=O)c1ccc2c(c1)C(=O)N(CCCCCCNc1ccnc3cc(Cl)ccc13)C2=O)c1ccncc1 | 21.9 µM (≈ 12.5 µg/mL) | 128 µM | 5.8 | 
O=C(NCCCCCCCCNc1ccnc2cc(Cl)ccc12)c1ccc2c(c1)C(=O)N(NC(=O)c1ccncc1)C2=O | 5.1 µM (≈ 3.06 µg/mL) | > 167 µM | > 32.7 | 
O=C(O)c1ccc2c(c1)C(=O)N(CCCNc1ccnc3cc(Cl)ccc13)C2=O | 489 µM (≈ 200 µg/mL) | 242 µM | 0.5 | 
O=C(O)c1ccc2c(c1)C(=O)N(CCNc1ccnc3cc(Cl)ccc13)C2=O | > 506 µM | > 253 µM | > 0.5 | 
O=C(NN1C(=O)c2cccc3cccc(c23)C1=O)c1ccncc1 |  |  |  | MIC [6]: > 631 µM
O=C(NNC(=O)c1ccc2c(c1)C(=O)N(CCNc1ccnc3cc(Cl)ccc13)C2=O)c1ccncc1 | 389 µM (≈ 200 µg/mL) | > 194 µM | > 0.5 | 
NNC(=O)c1ccncc1 | 0.07 µM (≈ 0.0096 µg/mL) |  |  | 
O=C(NN1C(=O)c2ccc(C(=O)OCCNc3ccnc4cc(Cl)ccc34)cc2C1=O)c1ccncc1 | > 388 µM | > 194 µM | > 0.5 | 
O=C1c2ccc(N3CCCCC3)cc2C(=O)N1CCCCNc1ccnc2cc(Cl)ccc12 |  |  |  | MIC [7]: 13.5 µM (≈ 6.25 µg/mL); IC50 (Vero [8]): > 216 µM
O=C(O)c1ccc2c(c1)C(=O)N(CCCCNc1ccnc3cc(Cl)ccc13)C2=O | 236 µM (≈ 100 µg/mL) | 40.1 µM | 0.16 | 
O=C(Cn1cc(CN2C(=O)c3ccccc3C2=O)nn1)Nc1ccc(Br)cc1 |  |  |  | MIC [9]: 28.4 µM (≈ 12.5 µg/mL)
O=C(NNC(=O)c1ccc2c(c1)C(=O)N(CCCNc1ccnc3cc(Cl)ccc13)C2=O)c1ccncc1 | 47.3 µM (≈ 25 µg/mL) | 119 µM | 2.5 | 
O=C(O)c1ccc2c(c1)C(=O)N(CCCCCCCCNc1ccnc3cc(Cl)ccc13)C2=O | 417 µM (≈ 200 µg/mL) | > 209 µM | > 0.5 | 
O=C(NCCNc1ccnc2cc(Cl)ccc12)c1ccc2c(c1)C(=O)N(NC(=O)c1ccncc1)C2=O | 6 µM (≈ 3.09 µg/mL) | 64.1 µM | 10.6 | 
O=C1C(=O)N(CCCN2CCN(c3ccnc4cc(Cl)ccc34)CC2)c2ccc(F)cc21 |  |  |  | MIC [4]: < 10.1 µM
O=C(CN1C(=O)c2ccc(F)cc2C1=O)NCCNc1ccnc2cc(Cl)ccc12 |  |  |  | MIC [7]: 14.6 µM (≈ 6.23 µg/mL); IC50 (Vero [8]): > 235 µM
